Assay results taken from US8030443B2, “Squamous cell carcinoma antigen-derived peptide binding to HLA-A24 molecule” (Kurume University, priority 2005, dated 2011).

Tested on: peptide-specific IgG in sera of cancer patients and healthy donors
Test: Measurement of anti-peptide IgG in plasma by LUMINEX multiplexed flow cytometric assay
Type: binding, human
How it was run: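 Plasma diluted 1/100 incubated with peptide-coupled colour-coded beads 2 h at RT, then biotinylated goat anti-human IgG (γ-chain) 1 h and streptavidin-PE 30 min; fluorescence read by multiplexed flow cytometry, >100 counted significant. Specificity checked by three rounds of absorption on corresponding versus irrelevant SCCA peptide.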

Sequence: KFMFDLFQQF (SCCA 10-19 peptide) [SCCA-derived peptide, position 10-19]
- Total: healthy donors with significant peptide-reactive IgG / donors tested (10 healthy donors, significant when fluorescence intensity exceeded 100 at 1/100 dilution): 1/10
- Total: cancer patients with significant peptide-reactive IgG / patients tested (71 cancer patients, significant when fluorescence intensity exceeded 100 at 1/100 dilution): 12/71
- Fluorescence intesity (serum of Breast Ca. patient #36, 1:100 dilution): 66
- Fluorescence intesity (serum of Breast Ca. patient #37, 1:100 dilution): 0
- Fluorescence intesity (serum of Breast Ca. patient #38, 1:100 dilution): 27
- Fluorescence intesity (serum of Breast Ca. patient #39, 1:100 dilution): 38
- Fluorescence intesity (serum of Breast Ca. patient #40, 1:100 dilution): 0
- Fluorescence intesity (serum of Breast Ca. patient #41, 1:100 dilution): 201
- Fluorescence intesity (serum of Breast Ca. patient #42, 1:100 dilution): 0
- Fluorescence intesity (serum of Breast Ca. patient #43, 1:100 dilution): 44
- Fluorescence intesity (serum of Breast Ca. patient #44, 1:100 dilution): 18
- Fluorescence intesity (serum of Breast Ca. patient #45, 1:100 dilution): 55
- Fluorescence intesity (serum of Colon Ca. patient #66, 1:100 dilution): 5
- Fluorescence intesity (serum of Colon Ca. patient #67, 1:100 dilution): 79
- Fluorescence intesity (serum of Colon Ca. patient #68, 1:100 dilution): 0
- Fluorescence intesity (serum of Colon Ca. patient #69, 1:100 dilution): 2
- Fluorescence intesity (serum of Colon Ca. patient #70, 1:100 dilution): 17
- Fluorescence intesity (serum of Colon Ca. patient #71, 1:100 dilution): 6
- Fluorescence intesity (serum of Gastric Ca. patient #56, 1:100 dilution): 38
- Fluorescence intesity (serum of Gastric Ca. patient #57, 1:100 dilution): 11
- Fluorescence intesity (serum of Gastric Ca. patient #58, 1:100 dilution): 0
- Fluorescence intesity (serum of Gastric Ca. patient #59, 1:100 dilution): 177
- Fluorescence intesity (serum of Gastric Ca. patient #60, 1:100 dilution): 4
- Fluorescence intesity (serum of Gastric Ca. patient #61, 1:100 dilution): 81
- Fluorescence intesity (serum of Gastric Ca. patient #62, 1:100 dilution): 0
- Fluorescence intesity (serum of Gastric Ca. patient #63, 1:100 dilution): 0
- Fluorescence intesity (serum of Gastric Ca. patient #64, 1:100 dilution): 9
- Fluorescence intesity (serum of Gastric Ca. patient #65, 1:100 dilution): 0
- Fluorescence intesity (serum of Healthy Donor #1, 1:100 dilution): 0
- Fluorescence intesity (serum of Healthy Donor #2, 1:100 dilution): 68
- Fluorescence intesity (serum of Healthy Donor #3, 1:100 dilution): 0
- Fluorescence intesity (serum of Healthy Donor #4, 1:100 dilution): 0
- Fluorescence intesity (serum of Healthy Donor #5, 1:100 dilution): 8
- Fluorescence intesity (serum of Healthy Donor #6, 1:100 dilution): 0
- Fluorescence intesity (serum of Healthy Donor #7, 1:100 dilution): 0
- Fluorescence intesity (serum of Healthy Donor #8, 1:100 dilution): 345
- Fluorescence intesity (serum of Healthy Donor #9, 1:100 dilution): 34
- Fluorescence intesity (serum of Healthy Donor #10, 1:100 dilution): 0
- Fluorescence intesity (serum of Pancreas Ca. patient #46, 1:100 dilution): 0
- Fluorescence intesity (serum of Pancreas Ca. patient #47, 1:100 dilution): 12
- Fluorescence intesity (serum of Pancreas Ca. patient #48, 1:100 dilution): 206
- Fluorescence intesity (serum of Pancreas Ca. patient #49, 1:100 dilution): 0
- Fluorescence intesity (serum of Pancreas Ca. patient #50, 1:100 dilution): 311
- Fluorescence intesity (serum of Pancreas Ca. patient #51, 1:100 dilution): 0
- Fluorescence intesity (serum of Pancreas Ca. patient #52, 1:100 dilution): 172
- Fluorescence intesity (serum of Pancreas Ca. patient #53, 1:100 dilution): 0
- Fluorescence intesity (serum of Pancreas Ca. patient #54, 1:100 dilution): 11
- Fluorescence intesity (serum of Pancreas Ca. patient #55, 1:100 dilution): 0
- Fluorescence intesity (serum of Uterine cervical Ca. patient #1, 1:100 dilution): 25
- Fluorescence intesity (serum of Uterine cervical Ca. patient #2, 1:100 dilution): 21
- Fluorescence intesity (serum of Uterine cervical Ca. patient #3, 1:100 dilution): 11
- Fluorescence intesity (serum of Uterine cervical Ca. patient #4, 1:100 dilution): 5
- Fluorescence intesity (serum of Uterine cervical Ca. patient #5, 1:100 dilution): 14
- Fluorescence intesity (serum of Uterine cervical Ca. patient #6, 1:100 dilution): 786
- Fluorescence intesity (serum of Uterine cervical Ca. patient #7, 1:100 dilution): 14
- Fluorescence intesity (serum of Uterine cervical Ca. patient #8, 1:100 dilution): 38
- Fluorescence intesity (serum of Uterine cervical Ca. patient #9, 1:100 dilution): 76
- Fluorescence intesity (serum of Uterine cervical Ca. patient #10, 1:100 dilution): 16
- Fluorescence intesity (serum of Uterine cervical Ca. patient #11, 1:100 dilution): 21
- Fluorescence intesity (serum of Uterine cervical Ca. patient #12, 1:100 dilution): 41
- Fluorescence intesity (serum of Uterine cervical Ca. patient #13, 1:100 dilution): 22
- Fluorescence intesity (serum of Uterine cervical Ca. patient #14, 1:100 dilution): 22
- Fluorescence intesity (serum of Uterine cervical Ca. patient #15, 1:100 dilution): 154
- Fluorescence intesity (serum of Uterine cervical Ca. patient #16, 1:100 dilution): 225
- Fluorescence intesity (serum of Uterine cervical Ca. patient #17, 1:100 dilution): 50
- Fluorescence intesity (serum of Uterine cervical Ca. patient #18, 1:100 dilution): 45
- Fluorescence intesity (serum of Uterine cervical Ca. patient #19, 1:100 dilution): 67
- Fluorescence intesity (serum of Uterine cervical Ca. patient #20, 1:100 dilution): 107
- Fluorescence intesity (serum of Uterine cervical Ca. patient #21, 1:100 dilution): 22
- Fluorescence intesity (serum of Uterine cervical Ca. patient #22, 1:100 dilution): 19
- Fluorescence intesity (serum of Uterine cervical Ca. patient #23, 1:100 dilution): 78
- Fluorescence intesity (serum of Uterine cervical Ca. patient #24, 1:100 dilution): 2277
- Fluorescence intesity (serum of Uterine cervical Ca. patient #25, 1:100 dilution): 19
- Fluorescence intesity (serum of Uterine cervical Ca. patient #26, 1:100 dilution): 88
- Fluorescence intesity (serum of Uterine cervical Ca. patient #27, 1:100 dilution): 33
- Fluorescence intesity (serum of Uterine cervical Ca. patient #28, 1:100 dilution): 228
- Fluorescence intesity (serum of Uterine cervical Ca. patient #29, 1:100 dilution): 15
- Fluorescence intesity (serum of Uterine cervical Ca. patient #30, 1:100 dilution): 44
- Fluorescence intesity (serum of Uterine cervical Ca. patient #31, 1:100 dilution): 107
- Fluorescence intesity (serum of Uterine cervical Ca. patient #32, 1:100 dilution): 21
- Fluorescence intesity (serum of Uterine cervical Ca. patient #33, 1:100 dilution): 92
- Fluorescence intesity (serum of Uterine cervical Ca. patient #34, 1:100 dilution): 17
- Fluorescence intesity (serum of Uterine cervical Ca. patient #35, 1:100 dilution): 17
